Data from patent US20200017496A1 (priority 2017, published 2020).

Assays:
Assay type in all cases: cell-based
[1] = test system: Proteus mirabilis (PMI) isolates; experiment: microbe, parasite or virus in culture; conditions: alone
In short: (§1)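 First, log-phase suspensions are brought to a final 5·10^5 CFU/mL in cation-adjusted Mueller-Hinton broth. Then plates with compound, antibacterial, or both incubate 16-20 h at 35° C under ambient air. Finally, visual inspection gives the lowest growth-preventing concentration for each agent.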

[2] = test system: Providencia rettgeri (PRE) isolates; experiment: MIC of compounds alone and combined with antibacterials, broth microdilution (CLSI)
In short: as §1

[3] = test system: Citrobacter koseri (CKR) isolates; experiment: as above; conditions: alone
In short: as §1

[4] = test system: Salmonella typhimurium (STY) isolates; experiment: as above; conditions: STY S3371; alone
In short: as §1

[5] = test system: Escherichia coli (ECO) isolates; experiment: as above; conditions: alone
In short: as §1

[6] = test system: Providencia stuartii (PST) isolates; experiment: as above; conditions: alone
In short: as §1

[7] = test system: Citrobacter freundii (CFR) isolates; experiment: as above
In short: as §1

[8] = test system: Enterobacter aerogenes (EAE) isolates; experiment: as above; conditions: alone
In short: as §1

Structure (SMILES): NC(=O)[C@@H]1CC[C@@H]2CN1C(=O)N2OC(F)(F)C(=O)[O-].[Na+] [EA1]
- MIC ([1]; PMI UFR82): >32 µg/mL
- MIC ([1]; PMI UFR120): >32 µg/mL
- MIC ([1]; PMI UFR121): >32 µg/mL
- MIC ([1]; PMI UFR122): >32 µg/mL
- MIC ([1]; PMI UFR123): >32 µg/mL
- MIC ([1]; PMI UFR124): >32 µg/mL
- MIC ([1]; PMI UFR125): >32 µg/mL
- MIC ([1]; PMI UFR126): >32 µg/mL
- MIC ([1]; PMI UFR127): >32 µg/mL
- MIC ([1]; PMI UFR129): >32 µg/mL
- MIC ([1]; PMI UFR130): >32 µg/mL
- MIC ([1]; PMI UFR237): >32 µg/mL
- MIC ([2]; PRE UFR99, alone): 32 µg/mL
- MIC ([2]; strain PRE UFR236, compound alone): >32 µg/mL
- MIC ([3]; CKO ROU): 16 µg/mL
- MIC ([3]; CKO UFR149): 16 µg/mL
- MIC ([3]; CKO UFR150): >32 µg/mL
- MIC [4]: >32 µg/mL
- MIC ([5]; ECO 4133): 16 µg/mL
- MIC ([5]; ECO 5302): 16 µg/mL
- MIC ([5]; ECO 131119): 32 µg/mL
- MIC ([5]; ECO 180070): >32 µg/mL
- MIC ([5]; ECO 190314): >32 µg/mL
- MIC ([5]; ECO 190317): 16 µg/mL
- MIC ([5]; ECO 190457): 16 µg/mL
- MIC ([5]; ECO 190549): 16 µg/mL
- MIC ([5]; ECO 200159): 32 µg/mL
- MIC ([5]; ECO 200259): 16 µg/mL
- MIC ([5]; ECO 200344): >32 µg/mL
- MIC ([5]; ECO 260096): 16 µg/mL
- MIC ([5]; ECO 260304): 32 µg/mL
- MIC ([5]; ECO 260508): 16 µg/mL
- MIC ([5]; ECO RGN238): >32 µg/mL
- MIC ([5]; ECO UFR15): 32 µg/mL
- MIC ([5]; ECO UFR16): 16 µg/mL
- MIC ([5]; ECO UFR17): 16 µg/mL
- MIC ([5]; ECO UFR18): 16 µg/mL
- MIC ([5]; ECO UFR19): 16 µg/mL
- MIC ([5]; ECO UFR20): 64 µg/mL
- MIC ([5]; ECO UFR61O): 32 µg/mL
- MIC ([5]; ECO UFR62): 16 µg/mL
- MIC ([5]; ECO UFR74): >32 µg/mL
- MIC ([5]; ECO UFR86): 16 µg/mL
- MIC ([5]; ECO UFR174): 8 µg/mL
- MIC ([5]; ECO UFR175): 32 µg/mL
- MIC ([5]; ECO UFR176): 32 µg/mL
- MIC ([5]; ECO UFR184): 8 µg/mL
- MIC ([5]; ECO UFR185): 16 µg/mL
- MIC ([5]; ECO UFR186): >32 µg/mL
- MIC ([5]; ECO UFR187): >32 µg/mL
- MIC ([5]; ECO UFR189): 16 µg/mL
- MIC ([5]; ECO UFR190): 16 µg/mL
- MIC ([5]; ECO UFR191): 32 µg/mL
- MIC ([5]; ECO UFR207): 32 µg/mL
- MIC ([5]; ECO UFR208): >32 µg/mL
- MIC ([5]; ECO UFR209): 16 µg/mL
- MIC ([5]; ECO UFR210): 16 µg/mL
- MIC ([5]; ECO UFR211): >32 µg/mL
- MIC ([5]; ECO UFR212): 16 µg/mL
- MIC ([5]; ECO UFR218): 16 µg/mL
- MIC ([6]; PST UFR94): >32 µg/mL
- MIC ([6]; PST UFR95): >32 µg/mL
- MIC ([6]; PST UFR235): 16 µg/mL
- MIC ([7]; CFR UFR10, alone): >32 µg/mL
- MIC ([7]; CFR UFR11, alone): 16 µg/mL
- MIC ([7]; CFR UFR83, alone): >32 µg/mL
- MIC ([7]; CFR UFR146, alone): 64 µg/mL
- MIC ([7]; CFR UFR248, alone): >32 µg/mL
- MIC ([7]; CFR UFR249, alone): >32 µg/mL
- MIC ([7]; CFR UFR250, alone): >32 µg/mL
- MIC ([7]; strain CFR UFR253, compound alone): 32 µg/mL
- MIC ([7]; strain CFR UFR254, compound alone): 32 µg/mL
- MIC ([8]; EAE 49469): >32 µg/mL
- MIC ([8]; EAE 200261): >32 µg/mL
- MIC ([8]; EAE UFR199): 128 µg/mL
- MIC ([8]; EAE UFR201): >32 µg/mL
- MIC ([8]; EAE UFR202): >32 µg/mL
- MIC ([8]; EAE UFR213): >32 µg/mL
